Experiment [1] has as its target T1, hPTP1B (Homo sapiens, UniProt P18031).
T1 construct: The catalytic structural domain of hPTP1B was expressed in E-coli system by a molecular biology protocol; made in house; host or cells: E. coli
T1 sequence (P18031 3-277 limits assumed): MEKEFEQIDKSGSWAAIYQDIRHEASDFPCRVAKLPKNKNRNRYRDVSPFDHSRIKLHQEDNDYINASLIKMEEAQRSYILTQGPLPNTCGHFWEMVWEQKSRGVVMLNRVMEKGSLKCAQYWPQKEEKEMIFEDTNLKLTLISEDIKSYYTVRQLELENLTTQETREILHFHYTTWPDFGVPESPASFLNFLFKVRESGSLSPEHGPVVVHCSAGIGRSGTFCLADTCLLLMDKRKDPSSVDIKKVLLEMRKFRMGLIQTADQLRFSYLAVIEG
As to the kind of experiment: PTP1B inhibition test (pNPP hydrolysis, absorption at 410 nm). In kind it is biochemical. Conditions: recombinant hPTP1B catalytic domain 40 nM, 2 mM pNPP, pH 7.0, 2% DMSO; read-out: IC50(μM), inhibitory activity of the test compounds against PTP1B. From the text:
1) Test principle: The catalytic structural domain of hPTP1B was expressed in E-coli system by a molecular biology protocol. The purified hPTP1B recombinant protein can hydrolyze the phosphoester linkage of the pNPP substrate to obtain a product which has a strong light absorption at 410 nm. Therefore, the variation of the enzyme activity and the inhibitory activity of a compound against the enzyme can be observed by directly monitoring the changes in the light absorption at 410 nm. A typical activity assay system is as follows: 50 mM Mops, PH 7.0, 1 mM EDTA, 2 mM DTT, 2 mM PNPP, 2% DMSO, 40 nM hPTP1B.
2) Measuring Index: The light absorption was dynamically measured at 410 nm for 3 min. The slope of the first-order reaction of the dynamic curve thereof was considered as the activity index of the enzymes.
3) Measurement: • 1. 1 mg sample was dissolved in 200 μL DMSO. To each wall of the A2-H11 of a 96-wells polypropylene plate, 20 μL of the solution was added, followed by addition of 80 μL DMSO. The plate was used as mother plate. • 2. To each corresponding wall of a 96-wells polypropylene plate, 2 μL of sample was added with a Biomek 2000 automation workstation. The plate was used as daughter plate for screening. • 3. To each wall of A1-D1 and E12-H12, 2 μL, DMSO was added. These walls were regarded as 100% of enzyme activity for control. • 4. To each wall of A12-D12 and E1-H1, 2 μL positive control with different concentrations (four concentrations prepared by double-fold dilution from […]) was added respectively. • 5. To each wall of A1-H12, 88 μL Assay mix was added respectively. • 6. To each wall of A1-H12, 10 μL hPTP1B was added respectively. • 7. The light absorption was measured at 410 nm for 3 min on a SpectraMAX 340 spectrometer. • 8. Exporting the output into a TXT file, and opening the file with Excel. The average of the Vmax values of A1-D1 and E12-H12 was considered as 100% of enzyme activity.
4) Results: The screening results were the % inhibitory rate against the enzyme when the compound concentration was 20 μg/mL. 1050 value was calculated according to a conventional screening when the inhibitory rate exceeded 50%. The […] value of the positive control, 4-[4-(4-oxalyl-phenoxymethyl)-benzyloxy]-phenyl-oxo-acetic acid, is 5.4 μM [Christopher T. Seto, et al. J. Med. Chem., 2002, 45, 3946-3952].

In experiment [2] the test system is insulin receptors (IRs) in CHO/IR cells. Nature of the experiment: Effect on the phosphorylation level of insulin receptors in CHO/IR cells. In kind it is cell-based. Conditions: CHO/IR cells, 0.21, 0.43, 0.85, 1.70 μM, 10 nM insulin stimulation, FIG. 1. From the text: 1). Experimental principle: The phosphorylation levels of insulin receptors (IRs) in cells sensitive to insulin are regulated by PTK and PTPase. PTP1B is a negative regulator during the process. It can be evaluated by measuring the phosphorylation level of IRs in CHO/IR cells whether the PTP inhibitor has entered into the cells and how its effect in cells is.
2). Experimental Protocol: • 1. Cell inoculation: Cells in good growth condition were inoculated into a 6-well plate with a density of 3-4×10^5 cells/well. To each well was added 2 mL F12 culture media containing 10% FBS. • 2. Starvation: After cultivation for 24 h, to each well was added 2 mL serum-free F12 culture media. Then the plate was cultivated overnight. • 3. Administration: After removing the old culture media, to each well was added 0.9 mLserum-free F12 culture media containing the test compound, wherein 1 mM Na3VO4 and 0.1% DMSO were used as positive and negative control, respectively. The plate was incubated for 2-4 h. • 4. Insulin stimulation: To each well was added 100 μL 100 nM insulin solution so that the final concentration was 10 nM. The reaction was carried out for 10 min. • 5. Sample collection: After discarding the culture media, to each well was added 150 μL×1 loading buffer. […]
3). Experimental results: The experiment evaluated the effect of WY586s on the phosphorylation levels of insulin receptors in CHO/IR cells. […]

Experiment [3] deals with T1, hPTP1B. Conditions: positive control; literature reference Seto et al. J. Med. Chem. 2002; cited from earlier work.

Like-named read-outs stand apart in the source and are kept apart here.

For the molecule `CCOC(=O)/C(C)=C\C(C)=C\c1csc([C@H](Cc2ccc(OCc3ccccc3)cc2)NC(=O)CC2CCCCC2)n1` [WY586s], the 50% inhibitory concentration (IC50) on hPTP1B [1] stood at 2.48 µM. Besides, the “phosphorylation level of IR (p-IR)” value in experiment [2] is “significantly increases with the increase of the concentration of the inhibitor”.
In the case of `O=C(O)C(=O)c1ccc(OCc2ccc(COc3ccc(C(=O)C(=O)O)cc3)cc2)cc1` [4-[4-(4-oxalyl-phenoxymethyl)-benzyloxy]-phenyl-oxo-acetic acid], the IC50 at hPTP1B [3] was 5.4 µM.

In general, IC50 refers to the midpoint of a concentration-inhibition curve.

Source of the values: patent publication US8183383B2, “Protein tyrosine phosphatase 1B inhibitor, preparation methods and uses thereof” (Shanghai Institute of Materia Medica, Chinese Academy of …, priority 2007, dated 2012).
